According to patent US20080132689A1, “Labile Linkage for Compound Delivery to a Cell” (priority 2003, published 2008):

Legend:
[1] = Measurement of acetal kinetics (rate of acetal hydrolysis in buffered solutions, by absorbance); format: physicochemical
Excerpt: To illustrate the rate of cleavage of several example ortho carboxy phenol derived acetals, we synthesized the molecules 1-3 (shown in FIG. 2) and measured the rates of acetal hydrolysis for each at pH 5.2-7.3. • Acetal 1. R′, R=alkyl; and R1, R2, R3, R4=hydrogen • Acetal 2. R′, R=alkyl; R1, R4=hydrogen; R2=carboxyl (carbon-containing group); R3=hydroxyl (heteroatom) • Acetal 3. R′=alkyl; R, R2, R3, R4=hydrogen; and R1=carboxyl (carbon-containing group)
To determine the rate of acetal hydrolysis, compounds 1-3 were added to buffered solutions (pH 7-8 with 5 mM HEPES, or pH 5-7 with 5 mM acetate) at various pH values and the absorbance of the solution was measured as a function of time (λ=302 nm for 1 and 2 and 310 nm for 3). The rate constant was determined by determining the slope of the line derived from plotting ln[1-((A∞-At)/(A∞-AO))] as a function of time t, where A∞ is absorbance after>3 hours of hydrolysis, At is the absorbance at time t, and AO is the initial absorbance. The half-life of the hydrolysis equals ln[2] divided by the rate constant.

[2] = test system: Hepa mouse hepatoma cells; experiment: DNA transfection with crosslinked pCIluc/DW921 complexes, luciferase expression; format: cell-based; details: pCIluc 10 μg/mL, DW921 100 μg/mL, 48 h, average of two wells
Procedure: To a solution of plasmid DNA pCIluc (10 μg/mL, 0.075 mM in phosphate, 2.6 μg/μL pCIluc; prepared according to Danko et al. 1997) in 0.5 mL of 150 mM NaCl and 5 mM TAPS pH 9 was added 100 μg/mL DW921. The complexes were then reacted with glutaraldehyde, periodate oxidized phenyl glucoside (another crosslinker containing a labile bond), or periodate oxidized salicylic galactoside at 1, 2, 4, 8, or 16 μg/mL. The complexes were then added (200 μL) to wells containing Hepa mouse hepatoma cells in Dulbecco's modified Eagle's Media containing 10% fetal bovine serum. The cells were allowed to incubate for 48 h. The cells were then harvested and assayed for luciferase expression as previously reported. The amount of transfection was reported in relative light units and is the average transfection for two separate wells of cells.

## CC(C)CCOC(C)Oc1ccccc1C(=O)O (centres unmarked) [Acetal 1]
[1]; pH 7.3
  half-life (minutes) of acetal hydrolysis: 1.0 min

## CC(C)[C@@H]1CC[C@@H](C)C[C@H]1OCOc1c(C(=O)O)cccc1C(=O)O [Acetal 3]
[1]; pH 5.2
  half-life (minutes) of acetal hydrolysis: 0.22 min
[1]; pH 6.5
  half-life (minutes) of acetal hydrolysis: 4.7 min

## O=CCCCC=O [glutaraldehyde]
[2]; 1 μg/mL dialdehyde crosslinker
  Relative Light Units: 915 Relative Light Units
[2]; 2 μg/mL dialdehyde crosslinker
  Relative Light Units: 620 Relative Light Units
[2]; 4 μg/mL dialdehyde crosslinker
  Relative Light Units: 1,400 Relative Light Units
[2]; 8 μg/mL dialdehyde crosslinker
  Relative Light Units: 590 Relative Light Units
[2]; 16 μg/mL dialdehyde crosslinker
  Relative Light Units: 565 Relative Light Units
